# Results: PubChem BioAssay (NCI)
#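 Exposure lasted 48 hours, with cells grown in 96-well plates and compounds tested at five concentrations. Here, GI50 denotes the concentration required for 50% inhibition of growth. TGI is the concentration that stops growth completely.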
# What was measured:
# Assay in all cases: growth of human tumour cells (NCI), 48 h
# [1] = system: MDA-MB-435
# [2] = system: RPMI-8226 leukemia
# [3] = system: NCI-H460 lung
# [4] = system: U251 CNS
# [5] = system: PC-3 prostate
# [6] = system: KM12 colon
# [7] = system: SNB-75 CNS
# [8] = system: HCT-116 colon
# [9] = system: SK-OV-3 ovarian
# [10] = system: SW-620 colon
SMILES,GI50 [1],TGI [1],GI50 [2],TGI [2],GI50 [3],TGI [3],GI50 [4],TGI [4],GI50 [5],TGI [5],GI50 [6],TGI [6],GI50 [7],TGI [7],GI50 [8],TGI [8],GI50 [9],TGI [9],GI50 [10],TGI [10]
c1cc(C2CCCCC2)ccc1-c1cnc2nonc2n1,0.237 µM,0.65 µM,0.4 µM,2.79 µM,1.38 µM,3.64 µM,1.18 µM,2.44 µM,0.789 µM,2.56 µM,0.973 µM,3.65 µM,0.528 µM,1.71 µM,0.468 µM,1.93 µM,2.21 µM,5.98 µM,0.502 µM,2.45 µM
COc1c(B(O)O)cccc1-c1nc2ccc3[nH]ncc3c2c2c1CCCC2,3.45 µM,12.1 µM,0.936 µM,7.01 µM,1.43 µM,11.2 µM,2.69 µM,18.5 µM,2.41 µM,40.6 µM,2.25 µM,10.9 µM,0.0307 µM,0.382 µM,0.473 µM,> 96.7 µM,1.19 µM,10.4 µM,1.17 µM,12.1 µM
O=C(N/N=C/c1cc(Cl)ccc1O)c1ccccc1Nc1ccnc(C(F)(F)F)c1,1.16 µM,16.9 µM,0.174 µM,1.2 µM,0.323 µM,10.5 µM,0.335 µM,9.41 µM,1.01 µM,35.6 µM,0.604 µM,11.5 µM,0.703 µM,20.8 µM,0.27 µM,13.1 µM,0.55 µM,19.1 µM,0.612 µM,12.7 µM
C[C@@H](CS[As](C)C)C(=O)N1CCC[C@H]1C(=O)O,0.138 µM,0.468 µM,0.0262 µM,0.0831 µM,1.4 µM,13.7 µM,0.482 µM,2.43 µM,0.284 µM,1.25 µM,1.9 µM,12.5 µM,0.512 µM,2.25 µM,0.167 µM,> 100 µM,0.625 µM,14.6 µM,0.25 µM,2.05 µM
O=C(NNc1ccccc1)c1ccc(Cl)c(Cl)c1,,> 100 µM,,> 54.4 µM,,> 100 µM,,> 100 µM,,> 100 µM,,> 75.9 µM,,> 67.8 µM,,> 100 µM,,> 80.1 µM,,> 100 µM
CCC[n+]1cc2cc3c(cc2c2c1-c1cc4c(cc1C2)OCO4)OCO3 (tested in a mixture with another compound),0.785 µM,2.29 µM,0.545 µM,5.5 µM,0.337 µM,4.39 µM,0.229 µM,3.32 µM,0.986 µM,7.16 µM,0.374 µM,5.33 µM,0.403 µM,1.38 µM,0.758 µM,11.3 µM,3.57 µM,16.4 µM,0.733 µM,12.8 µM
CC(C)(O)CCc1cccc(C(=O)c2cnn(-c3ccc(F)cc3)c2N)c1,> 25 µM,> 25 µM,> 25 µM,> 25 µM,> 25 µM,> 25 µM,> 25 µM,> 25 µM,> 25 µM,> 25 µM,> 25 µM,> 25 µM,> 25 µM,> 25 µM,> 25 µM,> 25 µM,> 25 µM,> 25 µM,> 25 µM,> 25 µM
